Assay results as given in ChEMBL document CHEMBL4627327, “Antibacterial activity of singly and doubly modified salinomycin derivatives” (Bioorg Med Chem Lett, 2020).
Values after ≈ are worked out from the molar mass of the structure shown. Active and inactive are the calls of the source. The rule behind the calls is not given here.

Assays:
Staphylococcus aureus [1] = experiment: Antibacterial activity against Staphylococcus aureus NCTC 4163 assessed as bacterial growth inhibition measured after 18 hrs by CLSI protocol based two-fold serial microdilution method; type: functional
Staphylococcus aureus [2] = experiment: Antibacterial activity against Staphylococcus aureus ATCC 29213 assessed as bacterial growth inhibition measured after 18 hrs by CLSI protocol based two-fold serial microdilution method; type: functional
Staphylococcus aureus [3] = experiment: Antibacterial activity against Staphylococcus aureus ATCC 25923 assessed as bacterial growth inhibition measured after 18 hrs by CLSI protocol based two-fold serial microdilution method; type: functional
Staphylococcus aureus [4] = experiment: Antibacterial activity against Staphylococcus aureus ATCC 6358 assessed as bacterial growth inhibition measured after 18 hrs by CLSI protocol based two-fold serial microdilution method; type: functional
[5] = system: Staphylococcus epidermidis; experiment: Antibacterial activity against Staphylococcus epidermidis ATCC 12228 assessed as bacterial growth inhibition measured after 18 hrs by CLSI protocol based two-fold serial microdilution method; type: functional
[6] = system: Staphylococcus epidermidis; experiment: Antibacterial activity against Staphylococcus epidermidis ATCC 35984 assessed as bacterial growth inhibition measured after 18 hrs by CLSI protocol based two-fold serial microdilution method; type: functional
Enterococcus hirae = experiment: Antibacterial activity against Enterococcus hirae ATCC 10541 assessed as bacterial growth inhibition measured after 18 hrs by CLSI protocol based two-fold serial microdilution method; type: functional
Micrococcus luteus = experiment: Antibacterial activity against Micrococcus luteus ATCC 9341 assessed as bacterial growth inhibition measured after 18 hrs by CLSI protocol based two-fold serial microdilution method; type: functional
Pseudomonas aeruginosa [7] = experiment: Antibacterial activity against Pseudomonas aeruginosa ATCC 15442 assessed as bacterial growth inhibition measured after 18 hrs by CLSI protocol based two-fold serial microdilution method; type: functional, organism-based
Pseudomonas aeruginosa [8] = experiment: Antibacterial activity against Pseudomonas aeruginosa ATCC 27853 assessed as bacterial growth inhibition measured after 18 hrs by CLSI protocol based two-fold serial microdilution method; type: functional, organism-based
Escherichia coli [9] = experiment: Antibacterial activity against Escherichia coli NCTC 8196 assessed as bacterial growth inhibition measured after 18 hrs by CLSI protocol based two-fold serial microdilution method; type: functional, organism-based
Escherichia coli [10] = experiment: Antibacterial activity against Escherichia coli ATCC 25922 assessed as bacterial growth inhibition measured after 18 hrs by CLSI protocol based two-fold serial microdilution method; type: functional, organism-based
[11] = system: Staphylococcus epidermidis; experiment: Antibacterial activity against methicillin-resistant Staphylococcus epidermidis isolate 574 assessed as bacterial growth inhibition measured after 18 hrs by CLSI protocol based two-fold serial microdilution method; type: functional; conditions: isolate 574, 18 h
[12] = system: Staphylococcus epidermidis; experiment: Antibacterial activity against methicillin-resistant Staphylococcus epidermidis isolate 602 assessed as bacterial growth inhibition measured after 18 hrs by CLSI protocol based two-fold serial microdilution method; type: functional; conditions: isolate 602, 18 h
[13] = system: Staphylococcus epidermidis; experiment: Antibacterial activity against methicillin-resistant Staphylococcus epidermidis isolate 603 assessed as bacterial growth inhibition measured after 18 hrs by CLSI protocol based two-fold serial microdilution method; type: functional; conditions: isolate 603, 18 h
[14] = system: Staphylococcus epidermidis; experiment: Antibacterial activity against methicillin-resistant Staphylococcus epidermidis isolate 609 assessed as bacterial growth inhibition measured after 18 hrs by CLSI protocol based two-fold serial microdilution method; type: functional; conditions: isolate 609, 18 h
[15] = system: Staphylococcus epidermidis; experiment: Antibacterial activity against methicillin-resistant Staphylococcus epidermidis isolate 610 assessed as bacterial growth inhibition measured after 18 hrs by CLSI protocol based two-fold serial microdilution method; type: functional; conditions: isolate 610, 18 h
[16] = system: Staphylococcus epidermidis; experiment: Antibacterial activity against methicillin-resistant Staphylococcus epidermidis isolate 654 assessed as bacterial growth inhibition measured after 18 hrs by CLSI protocol based two-fold serial microdilution method; type: functional; conditions: isolate 654, 18 h
[17] = system: Staphylococcus epidermidis; experiment: Antibacterial activity against methicillin-resistant Staphylococcus epidermidis isolate 660 assessed as bacterial growth inhibition measured after 18 hrs by CLSI protocol based two-fold serial microdilution method; type: functional; conditions: isolate 660, 18 h
Staphylococcus aureus [18] = experiment: Antibacterial activity against methicillin-resistant Staphylococcus aureus isolate 583 assessed as bacterial growth inhibition measured after 18 hrs by CLSI protocol based two-fold serial microdilution method; type: functional; conditions: isolate 583, 18 h
Staphylococcus aureus [19] = experiment: Antibacterial activity against methicillin-resistant Staphylococcus aureus isolate 584 assessed as bacterial growth inhibition measured after 18 hrs by CLSI protocol based two-fold serial microdilution method; type: functional; conditions: isolate 584, 18 h
Staphylococcus aureus [20] = experiment: Antibacterial activity against methicillin-resistant Staphylococcus aureus isolate 612 assessed as bacterial growth inhibition measured after 18 hrs by CLSI protocol based two-fold serial microdilution method; type: functional; conditions: isolate 612, 18 h
Staphylococcus aureus [21] = experiment: Antibacterial activity against methicillin-resistant Staphylococcus aureus isolate 620 assessed as bacterial growth inhibition measured after 18 hrs by CLSI protocol based two-fold serial microdilution method; type: functional; conditions: isolate 620, 18 h
Staphylococcus aureus [22] = experiment: Antibacterial activity against methicillin-resistant Staphylococcus aureus isolate 621 assessed as bacterial growth inhibition measured after 18 hrs by CLSI protocol based two-fold serial microdilution method; type: functional; conditions: isolate 621, 18 h
Staphylococcus aureus [23] = experiment: Antibacterial activity against methicillin-resistant Staphylococcus aureus isolate 750 assessed as bacterial growth inhibition measured after 18 hrs by CLSI protocol based two-fold serial microdilution method; type: functional; conditions: isolate 750, 18 h
Staphylococcus aureus [24] = experiment: Antibacterial activity against methicillin-resistant Staphylococcus aureus isolate 770 assessed as bacterial growth inhibition measured after 18 hrs by CLSI protocol based two-fold serial microdilution method; type: functional; conditions: isolate 770, 18 h
[25] = system: Staphylococcus epidermidis; experiment: Inhibition of biofilm formation in Staphylococcus epidermidis ATCC 35984 at 1 to 8 ug/ml measured after 24 hrs by crystal violet staining based assay; type: functional, organism-based
[26] = system: Staphylococcus epidermidis; experiment: Inhibition of biofilm formation in Staphylococcus epidermidis ATCC 12228 at 1 to 8 ug/ml measured after 24 hrs by crystal violet staining based assay; type: functional, organism-based
[27] = Genotoxicity in rec negative Bacillus subtilis M45 assessed as diameter of inhibition zone at 256 ug measured after 24 hrs by rec-assay; type: toxicity; conditions: in vivo
[28] = Genotoxicity in rec-positive Bacillus subtilis H17 assessed as diameter of inhibition zone at 256 ug measured after 24 hrs by rec-assay; type: toxicity; conditions: in vivo

| Structure (SMILES) | Activity (Pseudomonas aeruginosa [7]) | Activity (Pseudomonas aeruginosa [8]) | Activity (Escherichia coli [9]) | Activity (Escherichia coli [10]) | MIC [11] [µM] | MIC [12] [µM] | MIC [13] [µM] | MIC [14] [µM] | MIC [15] [µM] | MIC [16] [µM] | MIC [17] [µM] | MIC (Staphylococcus aureus [18]) [µM] | MIC (Staphylococcus aureus [19]) [µM] | MIC (Staphylococcus aureus [20]) [µM] | MIC (Staphylococcus aureus [21]) [µM] | MIC (Staphylococcus aureus [22]) [µM] | MIC (Staphylococcus aureus [23]) [µM] | MIC (Staphylococcus aureus [24]) [µM] | inhibition [25] | inhibition [26] | further results |
| --- | --- | --- | --- | --- | --- | --- | --- | --- | --- | --- | --- | --- | --- | --- | --- | --- | --- | --- | --- | --- | --- |
| CC[C@@H](C(=O)[C@@H](C)[C@@H](O)[C@H](C)[C@@H]1O[C@@H]([C@@H](CC)C(=O)ONC(=O)c2ccccc2)CC[C@@H]1C)[C@H]1O[C@]2(C=C[C@@H](O)[C@]3(CC[C@@](C)([C@H]4CC[C@](O)(CC)[C@H](C)O4)O3)O2)[C@H](C)C[C@@H]1C | inactive | inactive | inactive | inactive | 2.3 (≈ 2 µg/mL) | 4.6 (≈ 4 µg/mL) | 4.6 (≈ 4 µg/mL) | 4.6 (≈ 4 µg/mL) | 4.6 (≈ 4 µg/mL) | 18.4 (≈ 16 µg/mL) | 18.4 (≈ 16 µg/mL) | 18.4 (≈ 16 µg/mL) | 18.4 (≈ 16 µg/mL) | 4.6 (≈ 4 µg/mL) | 4.6 (≈ 4 µg/mL) | 2.3 (≈ 2 µg/mL) | 4.6 (≈ 4 µg/mL) | 9.19 (≈ 8 µg/mL) | Active | Active | MIC (Staphylococcus aureus [1]; NCTC 4163, 18 h): 1 to 16 µg/mL (≈ 1.15 to 18.4 µM); MIC (Staphylococcus aureus [2]; ATCC 29213, 18 h): 1 to 16 µg/mL (≈ 1.15 to 18.4 µM); MIC (Staphylococcus aureus [3]; ATCC 25923, 18 h): 1 to 16 µg/mL (≈ 1.15 to 18.4 µM); MIC (Staphylococcus aureus [4]; ATCC 6358, 18 h): 1 to 16 µg/mL (≈ 1.15 to 18.4 µM); MIC ([5]; ATCC 12228, 18 h): 1 to 16 µg/mL (≈ 1.15 to 18.4 µM); MIC ([6]; ATCC 35984, 18 h): 1 to 16 µg/mL (≈ 1.15 to 18.4 µM); MIC (Enterococcus hirae; ATCC 10541, 18 h): 1 to 16 µg/mL (≈ 1.15 to 18.4 µM); MIC (Micrococcus luteus; ATCC 9341, 18 h): 1 to 16 µg/mL (≈ 1.15 to 18.4 µM); diameter of the inhibition zone (DIZ) [27]: 32 mm; diameter of the inhibition zone (DIZ) [28]: 25 mm |
| CC[C@@H](C(=O)[C@@H](C)[C@@H](O)[C@H](C)[C@@H]1O[C@@H]([C@@H](CC)C(=O)ONC(=O)c2ccccc2O)CC[C@@H]1C)[C@H]1O[C@]2(C=CC(=O)[C@]3(CC[C@@](C)([C@H]4CC[C@](O)(CC)[C@H](C)O4)O3)O2)[C@H](C)C[C@@H]1C | inactive | inactive | inactive | inactive | 2.26 (≈ 2 µg/mL) | 4.52 (≈ 4 µg/mL) | 2.26 (≈ 2 µg/mL) | 2.26 (≈ 2 µg/mL) | 4.52 (≈ 4 µg/mL) | 72.4 (≈ 64 µg/mL) | 72.4 (≈ 64 µg/mL) | 36.2 (≈ 32 µg/mL) | 72.4 (≈ 64 µg/mL) | 4.52 (≈ 4 µg/mL) | 4.52 (≈ 4 µg/mL) | 4.52 (≈ 4 µg/mL) | 4.52 (≈ 4 µg/mL) | 72.4 (≈ 64 µg/mL) | Active | Active | Activity (Staphylococcus aureus [1]): Active; Activity (Staphylococcus aureus [2]): Active; Activity (Staphylococcus aureus [3]): Active; Activity (Staphylococcus aureus [4]): Active; Activity [5]: Active; Activity [6]: Active; Activity (Enterococcus hirae): Active; Activity (Micrococcus luteus): Active; diameter of the inhibition zone (DIZ) [27]: 19 mm; diameter of the inhibition zone (DIZ) [28]: 17 mm |
| CC[C@@H](C(=O)[C@@H](C)[C@@H](O)[C@H](C)[C@@H]1O[C@@H]([C@@H](CC)C(=O)NCCc2ccc(F)cc2)CC[C@@H]1C)[C@H]1O[C@]2(C=C[C@@H](O)[C@]3(CC[C@@](C)([C@H]4CC[C@](O)(CC)[C@H](C)O4)O3)O2)[C@H](C)C[C@@H]1C | inactive | inactive | inactive | inactive | 18.4 (≈ 16 µg/mL) | 36.7 (≈ 32 µg/mL) | 18.4 (≈ 16 µg/mL) | 18.4 (≈ 16 µg/mL) | 36.7 (≈ 32 µg/mL) | 36.7 (≈ 32 µg/mL) | 36.7 (≈ 32 µg/mL) | 18.4 (≈ 16 µg/mL) | 18.4 (≈ 16 µg/mL) | 36.7 (≈ 32 µg/mL) | 18.4 (≈ 16 µg/mL) | 18.4 (≈ 16 µg/mL) | 18.4 (≈ 16 µg/mL) | 36.7 (≈ 32 µg/mL) | Active | Active | diameter of the inhibition zone (DIZ) [27]: 27 mm; diameter of the inhibition zone (DIZ) [28]: 20 mm |
| C#CCN[C@@H]1C=C[C@]2(O[C@H]([C@@H](CC)C(=O)[C@@H](C)[C@@H](O)[C@H](C)[C@@H]3O[C@@H]([C@@H](CC)C(=O)O)CC[C@@H]3C)[C@@H](C)C[C@H]2C)O[C@@]12CC[C@@](C)([C@H]1CC[C@](O)(CC)[C@H](C)O1)O2 | inactive | inactive | inactive | inactive | 1.27 (≈ 1 µg/mL) | 1.27 (≈ 1 µg/mL) | 1.27 (≈ 1 µg/mL) | 1.27 (≈ 1 µg/mL) | 2.54 (≈ 2 µg/mL) | 81.2 (≈ 64 µg/mL) | 40.6 (≈ 32 µg/mL) | 81.2 (≈ 64 µg/mL) | 81.2 (≈ 64 µg/mL) | 1.27 (≈ 1 µg/mL) | 2.54 (≈ 2 µg/mL) | 1.27 (≈ 1 µg/mL) | 1.27 (≈ 1 µg/mL) | 2.54 (≈ 2 µg/mL) | Active | Active | diameter of the inhibition zone (DIZ) [27]: 34 mm; diameter of the inhibition zone (DIZ) [28]: 30 mm |
